Measured values from article PMC3070202 (Biochemistry, 2010).

Experiments:
[1] = molecular target: T1, human pancreas-specific protein disulfide isomerase (PDIp) (Homo sapiens, UniProt Q13087); assay: competition with [3H]E2 radioligand binding at […]
T1 sequence (Q13087 22-525): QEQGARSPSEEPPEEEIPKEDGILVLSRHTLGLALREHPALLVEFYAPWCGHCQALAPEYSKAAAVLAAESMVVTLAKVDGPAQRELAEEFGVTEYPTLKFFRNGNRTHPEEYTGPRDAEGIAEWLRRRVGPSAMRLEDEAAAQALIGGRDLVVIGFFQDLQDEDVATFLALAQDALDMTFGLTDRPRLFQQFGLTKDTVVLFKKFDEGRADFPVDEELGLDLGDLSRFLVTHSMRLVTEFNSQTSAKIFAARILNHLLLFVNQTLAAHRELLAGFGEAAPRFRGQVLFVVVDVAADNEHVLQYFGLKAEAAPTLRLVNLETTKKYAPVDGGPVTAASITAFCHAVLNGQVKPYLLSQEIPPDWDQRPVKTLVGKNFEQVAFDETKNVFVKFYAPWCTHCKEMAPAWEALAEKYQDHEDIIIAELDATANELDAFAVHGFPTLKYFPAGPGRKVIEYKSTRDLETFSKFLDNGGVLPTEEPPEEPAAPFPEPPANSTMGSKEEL

[2] = molecular target: T2, human pancreas-specific protein disulfide isomerase (PDIp) (Homo sapiens, UniProt Q13087, Q265L); assay: [3H]E2 saturation radioligand binding
T2 sequence (Q13087 153-366 Q265L limits assumed): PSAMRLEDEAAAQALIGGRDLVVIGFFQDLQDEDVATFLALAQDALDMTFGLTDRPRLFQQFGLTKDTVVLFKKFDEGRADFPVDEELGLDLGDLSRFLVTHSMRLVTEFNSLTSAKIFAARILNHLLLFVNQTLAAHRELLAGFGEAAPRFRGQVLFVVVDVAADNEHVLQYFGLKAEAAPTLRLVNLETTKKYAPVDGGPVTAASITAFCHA

[3] = molecular target: T1, human pancreas-specific protein disulfide isomerase (PDIp); assay: [3H]E2 saturation radioligand binding with Scatchard plot

Question: For `C[C@]12CC[C@@H]3c4ccc(O)cc4CC[C@H]3[C@@H]1C[C@@H](O)[C@@H]2O` [E3], which “competition with [3H]E2 radioligand binding at 10 μM” value [1] is on record?
Answer: could efficiently compete with [^3H]E2 for binding to the b-b′ fragment or the full-length PDIp

Question: For `C[C@]12CC[C@@H]3c4ccc(O)cc4CC[C@H]3[C@@H]1CC[C@@H]2O` [E2, Estradiol], which Kd [2] is on record?
Answer: 185 ± 8 nM

Question: And the Kd [3]?
Answer: ~170 nM
